{"source": "PubChem BioAssay AID602177", "about": "(NMMLSC, 2012)", "target": "Botulinum neurotoxin type F (Clostridium botulinum) (UniProt P30996)", "experiment": "concentration-response inhibition of BoNT/F LC – biochemical, cherry pick 1 compounds, dose response (AID 602177)", "details": "multiplex microsphere protease cleavage assay", "note": "Activity calls are given as the source filed them. How the calls were made is not given here."}
{"smiles": "Oc1[nH]c(N=C2N=c3ccccc3=N2)c2ccccc12", "values": [{"measurement": "EC50", "result": "> 20 µM (inactive)"}]}
